Reference: the NIST ThermoML archive (doi:10.1021/je600519p)
Numbers after ± are expanded uncertainties.

Assay: xn = mol fraction of the nth substance listed
Details: 101 kPa, Liquid

CCOC(=O)OCC [diethyl carbonate] + CCCCCCO
Details	mass density [kg/m3]	speed of sound [m/s]	viscosity [mPa·s]
293.15 K, x1 = 0.0502	825.96 ± 0.72	1301 ± 11	4.731 ± 0.21
293.15 K, x1 = 0.1123	834.86 ± 0.7	1291 ± 11	4.164 ± 0.18
293.15 K, x1 = 0.1499	840.29 ± 0.68	1285 ± 10	3.715 ± 0.17
293.15 K, x1 = 0.2103	849.1 ± 0.66	1275 ± 10	3.178 ± 0.14
293.15 K, x1 = 0.2508	855.05 ± 0.64	1268 ± 10	2.837 ± 0.13
293.15 K, x1 = 0.3121	864.19 ± 0.61	1259 ± 10	2.382 ± 0.11
293.15 K, x1 = 0.3576	871.02 ± 0.59	1252 ± 10	2.078 ± 0.096
293.15 K, x1 = 0.4113	879.15 ± 0.57	1245 ± 10	1.757 ± 0.082
293.15 K, x1 = 0.4632	887.08 ± 0.55	1239 ± 10	1.488 ± 0.07
293.15 K, x1 = 0.5111	894.51 ± 0.52	1234 ± 10	1.247 ± 0.06
293.15 K, x1 = 0.552	900.88 ± 0.51	1230 ± 10	1.115 ± 0.054
293.15 K, x1 = 0.6008	908.59 ± 0.48	1226 ± 10	0.956 ± 0.048
293.15 K, x1 = 0.6498	916.39 ± 0.46	1222 ± 10	0.863 ± 0.044
293.15 K, x1 = 0.7108	926.19 ± 0.43	1219 ± 10	0.859 ± 0.043
293.15 K, x1 = 0.7554	933.45 ± 0.41	1216 ± 10	0.84 ± 0.043
293.15 K, x1 = 0.8112	942.65 ± 0.39	1213 ± 10	0.831 ± 0.042
293.15 K, x1 = 0.8501	949.13 ± 0.37	1211 ± 10	0.825 ± 0.042
293.15 K, x1 = 0.9002	957.5 ± 0.35	1208 ± 10	0.818 ± 0.042
293.15 K, x1 = 0.9555	966.89 ± 0.32	1206 ± 10	0.803 ± 0.041
303.15 K, x1 = 0.0502	818.55 ± 0.74	1267 ± 10	3.486 ± 0.15
303.15 K, x1 = 0.1123	827.16 ± 0.71	1256 ± 10	3.03 ± 0.14
303.15 K, x1 = 0.1499	832.48 ± 0.7	1249 ± 10	2.796 ± 0.13
303.15 K, x1 = 0.2103	841.04 ± 0.67	1240 ± 10	2.403 ± 0.11
303.15 K, x1 = 0.2508	846.79 ± 0.66	1234 ± 10	2.165 ± 0.099
303.15 K, x1 = 0.3121	855.69 ± 0.63	1225 ± 10	1.859 ± 0.086
303.15 K, x1 = 0.3576	862.23 ± 0.61	1217 ± 10	1.621 ± 0.076
303.15 K, x1 = 0.4113	870.21 ± 0.59	1210 ± 10	1.414 ± 0.067
303.15 K, x1 = 0.4632	877.88 ± 0.57	1204 ± 10	1.22 ± 0.059
303.15 K, x1 = 0.5111	885.13 ± 0.54	1200 ± 10	1.063 ± 0.052
303.15 K, x1 = 0.552	891.35 ± 0.53	1197 ± 10	0.951 ± 0.047
303.15 K, x1 = 0.6008	898.87 ± 0.51	1194 ± 10	0.844 ± 0.043
303.15 K, x1 = 0.6498	906.42 ± 0.48	1193 ± 10	0.811 ± 0.041
303.15 K, x1 = 0.7108	915.93 ± 0.46	1192 ± 10	0.804 ± 0.08
303.15 K, x1 = 0.7554	923.08 ± 0.44	1191 ± 10	0.774 ± 0.08
303.15 K, x1 = 0.8112	932.03 ± 0.41	1190 ± 10	0.748 ± 0.039
303.15 K, x1 = 0.8501	938.29 ± 0.39	1189 ± 10	0.73 ± 0.038
303.15 K, x1 = 0.9002	946.57 ± 0.37	1188 ± 10	0.724 ± 0.038
303.15 K, x1 = 0.9555	955.77 ± 0.35	1187 ± 10	0.713 ± 0.037
313.15 K, x1 = 0.0502	811.04 ± 0.76	1252 ± 10	2.621 ± 0.12
313.15 K, x1 = 0.1123	819.37 ± 0.73	1236 ± 10	2.339 ± 0.11
313.15 K, x1 = 0.1499	824.54 ± 0.71	1224 ± 10	2.115 ± 0.097
313.15 K, x1 = 0.2103	832.78 ± 0.69	1211 ± 10	1.856 ± 0.086
313.15 K, x1 = 0.2508	838.35 ± 0.67	1203 ± 10	1.687 ± 0.079
313.15 K, x1 = 0.3121	846.97 ± 0.65	1192 ± 10	1.466 ± 0.07
313.15 K, x1 = 0.3576	853.42 ± 0.63	1185 ± 10	1.319 ± 0.063
313.15 K, x1 = 0.4113	861.12 ± 0.61	1177 ± 10	1.16 ± 0.056
313.15 K, x1 = 0.4632	868.59 ± 0.59	1170 ± 10	1.031 ± 0.051
313.15 K, x1 = 0.5111	875.61 ± 0.56	1165 ± 10	0.912 ± 0.046
313.15 K, x1 = 0.552	881.55 ± 0.55	1162 ± 10	0.826 ± 0.042
313.15 K, x1 = 0.6008	888.91 ± 0.53	1158 ± 10	0.744 ± 0.038
313.15 K, x1 = 0.6498	896.35 ± 0.51	1155 ± 10	0.689 ± 0.036
313.15 K, x1 = 0.7108	905.65 ± 0.48	1153 ± 10	0.61 ± 0.033
313.15 K, x1 = 0.7554	912.55 ± 0.46	1152 ± 10	0.607 ± 0.032
313.15 K, x1 = 0.8112	921.16 ± 0.43	1151 ± 10	0.602 ± 0.032
313.15 K, x1 = 0.8501	927.49 ± 0.42	1150 ± 10	0.606 ± 0.032
313.15 K, x1 = 0.9002	935.57 ± 0.39	1148 ± 10	0.61 ± 0.033
313.15 K, x1 = 0.9555	944.49 ± 0.37	1146 ± 10	0.615 ± 0.033
323.15 K, x1 = 0.0502	803.29 ± 0.77	1204 ± 10	2.06 ± 0.095
323.15 K, x1 = 0.1123	811.3 ± 0.75	1184 ± 10	1.825 ± 0.085
323.15 K, x1 = 0.1499	816.2 ± 0.73	1172 ± 10	1.689 ± 0.079
323.15 K, x1 = 0.2103	824.2 ± 0.71	1160 ± 10	1.488 ± 0.071
323.15 K, x1 = 0.2508	829.57 ± 0.69	1153 ± 10	1.367 ± 0.065
323.15 K, x1 = 0.3121	837.88 ± 0.67	1143 ± 10	1.22 ± 0.059
323.15 K, x1 = 0.3576	844.05 ± 0.65	1137 ± 10	1.093 ± 0.054
323.15 K, x1 = 0.4113	851.48 ± 0.63	1131 ± 10	0.97 ± 0.048
323.15 K, x1 = 0.4632	858.73 ± 0.61	1126 ± 10	0.857 ± 0.043
323.15 K, x1 = 0.5111	865.59 ± 0.59	1123 ± 9	0.765 ± 0.039
323.15 K, x1 = 0.552	871.51 ± 0.57	1121 ± 9	0.689 ± 0.036
323.15 K, x1 = 0.6008	878.65 ± 0.55	1119 ± 9	0.607 ± 0.033
323.15 K, x1 = 0.6498	885.85 ± 0.53	1117 ± 9	0.568 ± 0.031
323.15 K, x1 = 0.7108	894.96 ± 0.5	1115 ± 9	0.532 ± 0.029
323.15 K, x1 = 0.7554	901.77 ± 0.48	1114 ± 9	0.535 ± 0.029
323.15 K, x1 = 0.8112	910.41 ± 0.46	1113 ± 9	0.537 ± 0.029
323.15 K, x1 = 0.8501	916.42 ± 0.44	1112 ± 9	0.54 ± 0.03
323.15 K, x1 = 0.9002	924.3 ± 0.42	1111 ± 9	0.544 ± 0.03
323.15 K, x1 = 0.9555	933.24 ± 0.4	1110 ± 9	0.548 ± 0.03
